Measurements as given in paper PMC6599250, “Functional diversity of inhibitors tackling the differentiation blockage of MLL-rearranged leukemia” (Journal of Hematology & Oncology, 2019).
Blank lines part the entries; values can stand above or below the compound they belong to.

What was measured:
P-TEFb/CDK9 = settings: read-out: On target Potency IC50; cited from earlier work
[1] = tested on: MYC, PCNA, and MCL-1 levels; set-up: method as in earlier work; settings: initial pharmacodynamics data analysis; cited from earlier work
MENIN-MLL interaction = MENIN-MLL interaction (Homo sapiens, UniProt O00255); test: On target potency, MENIN-MLL interaction; format: biochemical
Chain of MENIN-MLL interaction (O00255 whole entry): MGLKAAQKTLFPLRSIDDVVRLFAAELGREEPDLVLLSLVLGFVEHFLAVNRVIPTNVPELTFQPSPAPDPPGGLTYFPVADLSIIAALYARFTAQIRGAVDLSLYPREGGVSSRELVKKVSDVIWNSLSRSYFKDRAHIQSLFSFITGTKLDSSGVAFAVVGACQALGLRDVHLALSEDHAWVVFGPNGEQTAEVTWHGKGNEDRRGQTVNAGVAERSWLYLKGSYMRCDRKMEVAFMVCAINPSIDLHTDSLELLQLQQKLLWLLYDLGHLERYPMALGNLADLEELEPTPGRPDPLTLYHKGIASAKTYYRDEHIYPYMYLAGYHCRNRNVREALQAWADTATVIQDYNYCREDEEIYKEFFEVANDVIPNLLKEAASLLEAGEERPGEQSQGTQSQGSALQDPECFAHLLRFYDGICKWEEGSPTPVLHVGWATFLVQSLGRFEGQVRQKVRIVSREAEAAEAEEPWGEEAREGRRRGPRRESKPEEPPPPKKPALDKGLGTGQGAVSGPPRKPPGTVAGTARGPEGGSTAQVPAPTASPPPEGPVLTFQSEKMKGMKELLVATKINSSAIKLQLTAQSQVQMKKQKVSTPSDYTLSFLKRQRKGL
Description: Table 1 Inhibitors used in this study. Chemical structures of inhibitor used in this study tackling Menin-MLL1 interaction, BRD4/2/3, DOT1L, CDK9, and DHODH active sites, with respective biochemical IC50, rationale and current developmental status | column: BAY-155

DHODH = tested on: DHODH; set-up: method as in PMID 2743343; settings: read-out: On target Potency IC50; cited from earlier work
[2] = tested on: H3K79me2 on HOXA9 and MEIS1; settings: clinical phase I study; cited from earlier work
BRD4/2/3 = settings: read-out: On target Potency EC50; cited from earlier work

Structure (SMILES): COc1cc(F)ccc1-c1cc(Nc2cc(CS(C)(=N)=O)ccn2)ncc1F (stereo not drawn) [BAY 1251152]
IC50 (P-TEFb/CDK9): 3 nM
pharmacodynamics in phase I [1]: dose-dependent reduction of MYC, PCNA, and MCL-1 levels

EC50 (MENIN-MLL interaction): 8 nM
Structure (SMILES): Cc1c(CN2CCC3(CC2)CN(c2ncnc4sc(CC(F)(F)F)cc24)C3)ccc2c1cc(C#N)n2CC(N)=O [BAY-155]

Structure (SMILES): CC(C)N(C[C@H]1O[C@@H](n2cnc3c(N)ncnc32)[C@H](O)[C@@H]1O)[C@H]1C[C@@H](CCc2nc3cc(C(C)(C)C)ccc3[nH]2)C1 [EPZ-5676]
H3K79me2 on HOXA9 and MEIS1 in AML patients [2]: significant reduction of H3K79me2 on HOXA9 and MEIS1

Structure (SMILES): Cc1sc2c(c1C)C(c1ccc(Cl)cc1)=N[C@@H](CC(=O)Nc1ccc(O)cc1)c1nnc(C)n1-2 [OTX015]
EC50 (BRD4/2/3): 10 to 19 nM
